Here are results for 23 compounds from patent US9624214B2, “Amino-substituted imidazo[1,2-a]pyridinecarboxamides and their use” (BAYER PHARMA AKTIENGESELLSCHAFT, priority 2012, dated 2017).

This experiment deals with T1, recombinant guanylate cyclase reporter cell line (Rattus norvegicus, UniProt P19686+P20595).
T1 construct: expressed in transfected cells
T1 sequence (P20595 1-619): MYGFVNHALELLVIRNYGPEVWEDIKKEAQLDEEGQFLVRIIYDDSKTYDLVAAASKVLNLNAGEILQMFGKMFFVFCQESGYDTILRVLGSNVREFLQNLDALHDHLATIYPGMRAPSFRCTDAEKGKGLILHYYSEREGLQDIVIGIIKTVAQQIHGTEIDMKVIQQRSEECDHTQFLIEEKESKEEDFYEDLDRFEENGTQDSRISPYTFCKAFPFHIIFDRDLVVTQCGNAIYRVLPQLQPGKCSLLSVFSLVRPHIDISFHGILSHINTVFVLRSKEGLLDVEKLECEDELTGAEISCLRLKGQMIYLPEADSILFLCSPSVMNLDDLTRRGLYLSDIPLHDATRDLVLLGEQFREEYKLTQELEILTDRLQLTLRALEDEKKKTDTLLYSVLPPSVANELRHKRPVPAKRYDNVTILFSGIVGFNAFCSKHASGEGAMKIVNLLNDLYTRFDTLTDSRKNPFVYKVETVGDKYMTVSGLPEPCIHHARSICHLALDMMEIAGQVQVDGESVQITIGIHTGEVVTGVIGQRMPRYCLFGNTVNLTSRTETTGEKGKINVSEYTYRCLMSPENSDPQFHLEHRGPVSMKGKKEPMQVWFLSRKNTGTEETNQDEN
T1 sequence (P19686 1-690): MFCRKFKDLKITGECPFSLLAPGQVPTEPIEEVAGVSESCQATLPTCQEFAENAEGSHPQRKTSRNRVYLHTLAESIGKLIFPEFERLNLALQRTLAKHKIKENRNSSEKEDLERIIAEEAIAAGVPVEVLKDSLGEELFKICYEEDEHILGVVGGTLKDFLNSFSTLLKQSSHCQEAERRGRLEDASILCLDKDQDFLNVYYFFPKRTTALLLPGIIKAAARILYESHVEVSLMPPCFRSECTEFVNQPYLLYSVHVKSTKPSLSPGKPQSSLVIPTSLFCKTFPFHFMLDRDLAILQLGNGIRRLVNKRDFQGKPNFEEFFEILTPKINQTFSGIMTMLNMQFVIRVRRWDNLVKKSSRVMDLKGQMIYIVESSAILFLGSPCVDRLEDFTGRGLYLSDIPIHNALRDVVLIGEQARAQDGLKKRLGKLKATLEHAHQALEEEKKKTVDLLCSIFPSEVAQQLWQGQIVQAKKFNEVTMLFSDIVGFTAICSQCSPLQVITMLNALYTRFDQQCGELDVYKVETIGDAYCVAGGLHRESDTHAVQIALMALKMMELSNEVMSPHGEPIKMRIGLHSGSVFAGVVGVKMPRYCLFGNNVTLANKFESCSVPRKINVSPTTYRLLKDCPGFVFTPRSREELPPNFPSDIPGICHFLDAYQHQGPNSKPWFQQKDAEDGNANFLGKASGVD
Nature of the experiment: B-2. Action on recombinant guanylate cyclase reporter cell line. Format: cell-based. The following applies: MEC = minimal effective concentration; in some cases mean values from individual determinations. On the procedure:
B-2. Action on Recombinant Guanylate Cyclase Reporter Cell Line
The cellular action of the compounds according to the invention is determined on a recombinant guanylate cyclase reporter cell line, as described in F. Wunder et al., Anal. Biochem. 339, 104-112 (2005).
Representative MEC values (MEC=minimal effective concentration) for the compounds according to the invention are shown in the following table (in some cases as mean values obtained from individual determinations): […]

Counter-ions that a name gives are not always drawn.

`Cc1cc(OCc2c(F)cccc2F)c2nc(C)c(C(=O)NC3CCC(N)C3)n2c1` (mixture of isomers) [Example 308, N-(3-aminocyclopentyl)-8-[(2,6-difluorobenzyl)oxy]-2,6-dimethylimidazo[1,2-a]pyridine-3-carboxamide (Stereoisomer Mixture)]: the MEC was 0.20 µM.

As to `Cc1cc(OCc2c(F)cccc2F)c2nc(C)c(C(=O)NC3CNCC3C(F)(F)F)n2c1` (mixture of isomers) [Example 313, 8-[(2,6-Difluorobenzyl)oxy]-2,6-dimethyl-N-[4-(trifluoromethyl)pyrrolidin-3-yl]imidazo[1,2-a]pyridine-3-carboxamide (Mixture of Stereoisomers)], the MEC amounted to 0.30 µM.

As to `Cc1cc(OCc2c(F)cccc2F)c2nc(C)c(C(=O)NC3CC(N)C3)n2c1` (mixture of isomers) [Example 334, N-(3-aminocyclobutyl)-8-[(2,6-difluorobenzyl)oxy]-2,6-dimethylimidazo[1,2-a]pyridine-3-carboxamide (cis/trans Mixture)], the MEC stood at 1.00 µM.

In the case of `Cc1cc(OCc2c(F)cccc2F)c2nc(C)c(C(=O)NC3CC(C)(C)C3N)n2c1` (mixture of isomers) [Example 358, N-(2-amino-3,3-dimethylcyclobutyl)-8-[(2,6-difluorobenzyl)oxy]-2,6-dimethylimidazo[1,2-a]pyridine-3-carboxamide Formate (Isomer Mixture)], the MEC came to 0.30 µM.

In the case of `Cc1nc2c(OCc3c(F)cccc3F)cccn2c1C(=O)NC(CN)CC(F)(F)F` (racemic) [Example 2, rac-N-(1-Amino-4,4,4-trifluorobutan-2-yl)-8-[(2,6-difluorobenzyl)oxy]-2-methylimidazo[1,2-a]-pyridine-3-carboxamide], the MEC is 0.65 µM.

Turning to `Cc1nc2c(OCc3c(F)cccc3F)cccn2c1C(=O)NC(CN)CC(C(F)(F)F)C(F)(F)F` (racemic) [Example 5, rac-N-[1-amino-5,5,5-trifluoro-4-(trifluoromethyl)pentan-2-yl]-8-[(2,6-difluorobenzyl)oxy]-2-methylimidazo[1,2-a]-pyridine-3-carboxamide trifluoroacetate], the MEC was found to be 1.00 µM.

Turning to `Cc1nc2c(OCc3c(F)cccc3F)cccn2c1C(=O)NC(CN)c1ccc(F)cc1` (racemic) [Example 9, rac-N-[2-Amino-1-(4-fluorophenyl)ethyl]-8-[(2,6-difluorobenzyl)oxy]-2-methylimidazo[1,2-a]-pyridine-3-carboxamide], the MEC is 0.30 µM.

As to `Cc1nc2c(OCc3c(F)cccc3F)cccn2c1C(=O)NC(CN)c1ccc(F)c(F)c1` (racemic) [Example 11, rac-N-[2-Amino-1-(3,4-difluorophenyl)ethyl]-8-[(2,6-difluorobenzyl)oxy]-2-methylimidazo[1,2-a]pyridine-3-carboxamide], the MEC was determined as 0.30 µM.

Regarding `Cc1nc2c(OCc3c(F)cccc3F)cccn2c1C(=O)NC(CN)c1ccc(Cl)cc1` (racemic) [Example 14, rac-N-[2-Amino-1-(4-chlorophenyl)ethyl]-8-[(2,6-difluorobenzyl)oxy]-2-methylimidazo[1,2-a]-pyridine-3-carboxamide Dihydrochloride], the MEC is 1.00 µM.

Consider `Cc1nc2c(OCc3c(F)cccc3F)cccn2c1C(=O)NC(CN)c1ccccc1` (racemic) [Example 16, rac-N-(2-Amino-1-phenylethyl)-8-[(2,6-difluorobenzyl)oxy]-2-methylimidazo[1,2-a]pyridine-3-carboxamide Dihydrochloride], for which the MEC worked out at 0.30 µM.

As for `Cc1nc2c(OCc3c(F)cccc3F)cccn2c1C(=O)NC(C)CN` (racemic) [Example 17, rac-N-(1-aminopropan-2-yl)-8-[(2,6-difluorobenzyl)oxy]-2-methylimidazo[1,2-a]-pyridine-3-carboxamide dihydrochloride], the MEC is 1.00 µM.

As to `Cc1nc2c(OCc3c(F)cccc3F)cc(Cl)cn2c1C(=O)NCC(C)N` (racemic) [Example 23, rac-N-(2-aminopropyl)-6-chloro-8-[(2,6-difluorobenzyl)oxy]-2-methylimidazo[1,2-a]-pyridine-3-carboxamide], the MEC is 0.30 µM.

Take `Cc1nc2c(OCc3c(F)cccc3F)cccn2c1C(=O)NC1CNc2ccccc21` (racemic) [Example 28, rac-8-[(2,6-difluorobenzyl)oxy]-N-(2,3-dihydro-1H-indol-3-yl)-2-methylimidazo[1,2-a] pyridine-3-carboxamide]: the MEC came to 0.30 µM.

Regarding `Cc1nc2c(OCc3c(F)cccc3F)cccn2c1C(=O)NCC(C)N` (racemic) [Example 34, rac-N-(2-aminopropyl)-8-[(2,6-difluorobenzyl)-oxy]-2-methylimidazo[1,2-a]pyridine-3-carboxamide dihydrochloride], the MEC turned out to be 1.00 µM.

As to `Cc1nc2c(OCC3CCCCC3)cccn2c1C(=O)NC(CN)c1ccc(Cl)cc1` (racemic) [Example 43, rac-N-[2-Amino-1-(4-chlorophenyl)ethyl]-8-(cyclohexylmethoxy)-2-methylimidazo[1,2-a]-pyridine-3-carboxamide], the MEC came to 1.00 µM.

`Cc1nc2c(OCC3CCCCC3)cccn2c1C(=O)NC(CN)c1ccccc1` (racemic) [Example 44, rac-N-(2-Amino-1-phenylethyl)-8-(cyclohexylmethoxy)-2-methylimidazo[1,2-a]pyridine-3-carboxamide]: the MEC stood at 0.30 µM.

For `Cc1nc2c(OCC3CCCCC3)cccn2c1C(=O)NC(CN)c1ccc(F)c(F)c1` (racemic) [Example 46, rac-N-[2-Amino-1-(3,4-difluorophenyl)ethyl]-8-(cyclohexylmethoxy)-2-methylimidazo[1,2-a]-pyridine-3-carboxamide], the MEC amounted to 1.00 µM.

Consider `Cc1nc2c(OCc3c(F)cccc3F)cc(Cl)cn2c1C(=O)NC1CNc2ccccc21` (racemic) [Example 49, rac-6-Chloro-8-[(2,6-difluorobenzyl)oxy]-N-(2,3-dihydro-1H-indol-3-yl)-2-methylimidazo[1,2-a]-pyridine-3-carboxamide], for which the MEC turned out to be 0.30 µM.

On to `Cc1nc2c(OCc3c(F)cccc3F)cccn2c1C(=O)NC1CCNc2ccccc21` (racemic) [Example 50, rac-8-[(2,6-Difluorobenzyl)oxy]-2-methyl-N-(1,2,3,4-tetrahydroquinolin-4-yl)imidazo[1,2-a]-pyridine-3-carboxamide], for which the MEC is 0.03 µM.

As to `Cc1nc2c(OCc3c(F)cccc3F)cccn2c1C(=O)NC(CN)COc1ccc(F)cc1` (racemic) [Example 58, rac-N-[1-amino-3-(4-fluorophenoxy)propan-2-yl]-8-[(2,6-difluorobenzyl)oxy]-2-methylimidazo[1,2-a]pyridine-3-carboxamide], the MEC is 1.00 µM.

`Cc1nc2c(OCc3c(F)cccc3F)cccn2c1C(=O)NC(CN)COc1ccccc1` (racemic) [Example 59, rac-N-(1-amino-3-phenoxypropan-2-yl)-8-[(2,6-difluorobenzyl)oxy]-2-methylimidazo[1,2-a]-pyridine-3-carboxamide dihydrochloride]: the MEC is 3.00 µM.

With `Cc1nc2c(OCc3c(F)cccc3F)cccn2c1C(=O)NC(CN)COC(C)C` (racemic) [Example 63, rac-N-(1-Amino-3-isopropoxypropan-2-yl)-8-[(2,6-difluorobenzyl)oxy]-2-methylimidazo[1,2-a]-pyridine-3-carboxamide], the MEC stood at 0.30 µM.

With `Cc1nc2c(OCc3c(F)cccc3F)cccn2c1C(=O)NC1CNc2ccccc2C1` (racemic) [Example 75, rac-8-[(2,6-Difluorobenzyl)oxy]-2-methyl-N-(1,2,3,4-tetrahydroquinolin-3-yl)imidazo[1,2-a]-pyridine-3-carboxamide], the MEC turned out to be 1.00 µM.
